Here are results for 1 compound from PMC11460631, “Inhibition of transient receptor potential vanilloid 3 channels by antimalarial hydroxychloroquine alleviates TRPV3-dependent dermatitis” (The Journal of Biological Chemistry, 2024).

Structures are written as SMILES.

In test [1] the target is T1, TRPV3 I637 alanine mutation (Homo sapiens, UniProt Q8NET8, I637A).
T1 construct: YFP or GFP; expressed in transfected cells; host or cells: HEK293T
T1 sequence (Q8NET8 1-790 I637A): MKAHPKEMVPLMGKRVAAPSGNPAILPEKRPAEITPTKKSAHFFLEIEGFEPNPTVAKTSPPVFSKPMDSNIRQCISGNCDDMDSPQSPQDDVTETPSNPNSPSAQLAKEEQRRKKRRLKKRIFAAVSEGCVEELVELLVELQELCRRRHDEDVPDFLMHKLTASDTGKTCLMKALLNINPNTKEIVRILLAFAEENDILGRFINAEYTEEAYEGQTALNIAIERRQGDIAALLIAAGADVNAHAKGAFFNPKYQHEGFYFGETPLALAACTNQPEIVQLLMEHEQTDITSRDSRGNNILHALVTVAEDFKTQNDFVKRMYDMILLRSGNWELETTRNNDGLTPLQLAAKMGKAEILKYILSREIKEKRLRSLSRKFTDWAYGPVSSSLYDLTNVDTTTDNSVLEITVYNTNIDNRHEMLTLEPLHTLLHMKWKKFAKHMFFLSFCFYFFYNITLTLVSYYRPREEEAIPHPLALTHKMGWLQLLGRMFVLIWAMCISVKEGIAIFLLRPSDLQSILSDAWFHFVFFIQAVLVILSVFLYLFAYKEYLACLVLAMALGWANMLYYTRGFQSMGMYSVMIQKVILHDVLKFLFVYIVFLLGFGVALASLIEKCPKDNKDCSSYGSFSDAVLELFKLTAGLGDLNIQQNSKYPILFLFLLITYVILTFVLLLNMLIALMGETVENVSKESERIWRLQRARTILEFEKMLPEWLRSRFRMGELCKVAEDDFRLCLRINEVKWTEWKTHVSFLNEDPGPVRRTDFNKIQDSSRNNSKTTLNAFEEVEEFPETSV
In words: Whole-cell recording of TRPV3 I637 alanine mutant. Particulars: 1 mM 2-APB, ± 80 mV. The format is cell-based. An excerpt: As we mentioned above, HCQ may act as a pore blocker of TRPV3. To probe the binding configuration of HCQ to TRPV3, we carried out molecular docking using Rosetta suite (https://rosettacommons.org) ([21]) and validated the docking models with point mutations in TRPV3 (Fig. 4A). […] Furthermore, when we introduced L670A to L591A mutant, we also observed a left shift on the concentration–response curve on this double mutant as compared to L591A mutant (Fig. 4H).
Figure 4 Residues of the pore domain are critical for HCQ inhibition on TRPV3.A, left panel, docking model of HCQ to the pore domain of TRPV3 structure (6uw4). Right panels, top view and side view of the HCQ-binding pocket. B-J, representative whole-cell recording of TRPV3 and mutants in response to 1 mM 2-APB, the mixture of 1 mM 2-APB and concentration gradients of HCQ with the holding potential of ± 80 mV. K, concentration–response curves of HCQ in WT TRPV3 and mutants (n = 3–5 cells). L, quantification of the inhibitory ratio of HCQ (100 μM) on WT, L591A, and N671Q. […]
All data from whole-cell recordings were analyzed in Igor Pro (WaveMetrics). IC50 values were determined by fitting the Hill equation to concentration-response relationships. […]

The target of test [2] is T2, hTRPA1 (Homo sapiens, UniProt O75762).
T2 construct: YFP or GFP; expressed in transfected cells; host or cells: HEK293T
T2 sequence (O75762 whole entry): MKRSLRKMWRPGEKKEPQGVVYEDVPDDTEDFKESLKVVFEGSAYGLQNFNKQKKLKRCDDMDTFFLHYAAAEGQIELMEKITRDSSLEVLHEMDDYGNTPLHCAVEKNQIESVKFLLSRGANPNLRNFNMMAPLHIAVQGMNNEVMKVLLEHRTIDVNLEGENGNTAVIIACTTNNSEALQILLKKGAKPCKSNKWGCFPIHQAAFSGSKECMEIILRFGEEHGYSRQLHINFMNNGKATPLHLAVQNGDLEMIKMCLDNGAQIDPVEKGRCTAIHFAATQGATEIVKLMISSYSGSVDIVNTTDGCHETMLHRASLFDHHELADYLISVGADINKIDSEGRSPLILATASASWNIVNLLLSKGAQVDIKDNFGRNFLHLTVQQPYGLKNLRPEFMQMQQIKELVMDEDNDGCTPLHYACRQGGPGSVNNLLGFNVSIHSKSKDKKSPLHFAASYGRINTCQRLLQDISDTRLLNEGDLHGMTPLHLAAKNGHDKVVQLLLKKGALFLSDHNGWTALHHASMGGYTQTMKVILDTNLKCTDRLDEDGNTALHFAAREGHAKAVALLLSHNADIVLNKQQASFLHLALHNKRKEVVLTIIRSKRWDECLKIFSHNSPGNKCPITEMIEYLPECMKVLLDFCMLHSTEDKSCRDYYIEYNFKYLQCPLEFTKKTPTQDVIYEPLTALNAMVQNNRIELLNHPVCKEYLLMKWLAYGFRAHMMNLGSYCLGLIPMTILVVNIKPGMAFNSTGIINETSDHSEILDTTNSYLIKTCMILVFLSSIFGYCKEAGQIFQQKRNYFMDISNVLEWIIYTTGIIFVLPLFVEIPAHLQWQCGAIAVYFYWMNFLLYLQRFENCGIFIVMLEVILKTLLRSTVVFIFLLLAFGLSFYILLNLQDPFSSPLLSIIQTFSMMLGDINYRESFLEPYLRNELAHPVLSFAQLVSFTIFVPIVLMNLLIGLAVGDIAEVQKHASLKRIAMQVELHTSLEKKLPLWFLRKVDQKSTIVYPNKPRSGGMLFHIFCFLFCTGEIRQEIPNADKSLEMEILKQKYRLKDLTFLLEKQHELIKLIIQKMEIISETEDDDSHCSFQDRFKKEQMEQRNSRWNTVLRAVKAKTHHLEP
In words: Whole-cell current recordings, hTRPA1. It counts as cell-based. Particulars: 100 μM HCQ; current activated by 500 μM allyl isothiocyanate. On the procedure:
To elucidate the specificity of HCQ inhibition on TRPV3, we conducted whole-cell current recordings on other known pruritus-related TRP channels, such as hTRPA1, mTRPV1, mTRPV4, and mTRPM8 (Fig. 3, A and F). […] Because of the relatively larger inhibition of HCQ on mTRPM8 current, we tested the concentration dependence of HCQ on mTRPM8 channels.
HEK293T cells are cultured using Dulbecco's modified Eagle's medium containing 10% fetal bovine serum and 1% penicillin-streptomycin in a cell incubator with 5% CO2 at 37 °C. Plasmids of murine TRPV1, TRPV4, TRPM8, and human TRPV3, TRPA1 are labeled with YFP or GFP as indicators for subsequent electrophysiological recordings. Complementary DNA constructs of ion channels were transiently transfected with Lipofectamine 3000 (Invitrogen). And 12 to 18 h after transient transfection, electrophysiological recordings were performed.
Patch-clamp recordings were carried out with a HEKA EPC10 amplifier controlled by PatchMaster software (HEKA; https://www.heka.com/products/products_main.html#soft_pm) ([36]). Patch pipettes were prepared from borosilicate glass and fire-polished to the resistance of 3 to 8 MΩ by P-97 puller for whole-cell recordings. For single-channel recordings, patch pipettes were fire-polished to a higher resistance of 6 to 10 MΩ. […]

In the case of `CCN(CCO)CCCC(C)Nc1ccnc2cc(Cl)ccc12` (centres unmarked) [HCQ, hydroxychloroquine], the IC50 (usually the concentration that inhibits the measured activity by half) in test [1] was 140 ± 20 nM. Moreover, in test [2], the “reduction of hTRPA1 current” value is on record as 11.37% ± 4.10%.
